Experimental data as given in patent publication US9829488B2, “Paper-based cellular arrays” (President and Fellows of Havard College, priority 2008, dated 2017).

Columns and labels:
HUVEC = assay: Three-dimensional migration (invasion) of HUVEC cells in MATRIGEL-permeated paper; format: cell-based, human
Method: A suspension of cells in […]™ (1 μL, 10^7 cells/mL) was spotted onto paper, and the paper was immersed in […]™. […] Migration of the cells into the surrounding […]™ was monitored over time using a fluorescent gel scanner. […] The radius of the cell-containing spot served as the measure of the migration. Cell-containing sheets were suspended in endothelial culture media supplemented with 100 ng/mL VEGF (“VEGF”) or 10 μM of small molecule inhibitor of Rho kinase Y27632 (“Y27632”).

PC-12 cells [1] = assay: Neuronal differentiation of PC-12 cells in paper-supported MATRIGEL (confocal microscopy, neurites); format: cell-based, rat; conditions: 6 days, 100 ng/mL NGF
Source text: Next, we assessed whether PC-12 cells maintained in paper-supported three-dimensional matrices were differentiated into neurons using NGF-treatment. We spotted suspensions of PC12 cells in MATRIGEL™ onto paper and suspended the paper in the media supplemented with NGF or with a combination of NGF and the ROCK inhibitor Y27632. Confocal microscopy examination uncovered neuron-like cells with long neurites. The morphology of cells and length of neurites varied when different media/additives were used.

3T3 fibroblasts = assay: Proliferation of 3T3 fibroblasts in MATRIGEL-permeated paper in 96-well plate (Alamar Blue); format: cell-based; conditions: colchicine added to the wells
Source text: One exemplary method is depicted in FIG. 8. In this method, a paper array of the same size is distributed to each well of the microtiter plate to ensure delivery of nearly identical number of cells per well (FIG. 8A). To illustrate this strategy, 2 mm×4 mm pieces of filter paper were permeated with suspension of 3T3 fibroblasts in MATRIGEL™ and then distributed into the wells of a 96-well plate. Alamar Blue was used to estimate the number of cells. […] 3T3 cells proliferated within MATRIGEL™-soaked paper but not within the MATRIGEL™-free paper (FIG. 8B), and this proliferation was halted when colchicine was added to the wells. This system, therefore, can be used to screen for agents that influence proliferation of cells in three-dimensional arrays.

[2] = test system: PC-12 rat adrenal pheochromocytoma cell line; assay: Proliferation of PC-12 cells in MATRIGEL-permeated paper (phalloidin stain, gel scanner); format: cell-based; conditions: serum-containing media, 100 ng/mL NGF
Method: First, we assessed the proliferation of PC-12 cells grown in paper in response to NGF. Suspensions of PC12 cells in MATRIGEL™ (1 uL, 5×10^6 cells/mL) were spotted onto filter paper. The paper was placed in serum-containing media (2.5% fetal bovine serum, 15% horse serum in F12K basal media) or serum-containing media supplemented with 100 ng/mL of nerve growth factor (NGF). Cells within paper MATRIGEL™ matrix were cultured for the indicated times, fixed with formaldehyde, and stained with Alexa Fluor 488-conjugated phalloidin. The paper was scanned using a Typhoon fluorescent gel scanner (see FIG. 13A). Error bars are one standard deviation.

PC-12 cells [3] = assay: Quantitative PCR of neuronal transcripts NF-L and NPY in PC-12 cells; format: cell-based, rat; conditions: 100 ng/mL, day 3 or 4, GAPDH as reference
Method: Finally, we compared the differentiation of PC-12 cells maintained in paper-supported MATRIGEL™ (“paper”) with that of cells in paper-free MATRIGEL™ (“3D”) or on MATRIGEL™ coated surfaces (“2D”).
Cells in these matrices were proliferated in serum-containing media or in media supplemented with 100 ng/mL NFG. On day 3 or 4, the samples were processed to isolate mRNA and the level of expression of NF-L or NPY were assessed by quantitative PCR. GAPDH and actin were used as housekeeping controls. ΔΔCT-analysis was performed in the linear range for every primer using GAPDH as a reference. In FIG. 14, each data point is an average of measurements from 3 independent samples. The error bar is one standard deviation.

C[C@@H](N)[C@H]1CC[C@H](C(=O)Nc2ccncc2)CC1 [Y27632, reference compound]
outgrowth of cells (migration into surrounding MATRIGEL) (HUVEC; endothelial culture media + 10 μM Y27632): promoted | neurites developed by cells (PC-12 cells [1]; serum-free media, 5 μM Y27632): extensive 3D network of interconnected neurites

COc1cc2c(c(OC)c1OC)-c1ccc(OC)c(=O)cc1[C@@H](NC(C)=O)CC2 [colchicine]
proliferation of 3T3 cells within MATRIGEL-soaked paper (3T3 fibroblasts): halted

NGF: nerve growth factor
neurites developed by cells (PC-12 cells [1]; serum containing media): short neurites | neurites developed by cells (PC-12 cells [1]; serum-free media): longer neurites | effect on growth rate of the cells [2]: little effect | level of NF-L expression (PC-12 cells [3]): induced | level of NPY expression (PC-12 cells [3]): induced

VEGF
radius of the invasion (HUVEC; EGM with additional 100 ng/mL VEGF, compared with EGM+10 μM Y27632): significantly lower
